This test relates to rabbit's corpus cavernosum. The experiment in a line: Relaxing effect in isolated rabbit's corpus cavernosum strips pre-contracted with phenylephrine (isometric tension). On the set-up: species or system New Zealand White rabbits. The note with it: strips pre-contracted with 1 μM PE; FIGS. 12 and 13. As for the experimental part: For this study, New Zealand White rabbits (2 to 3.5 kg) were used to obtain penile tissue which was excised and transferred to a chilled Krebs solution. For this study, we used cavernosum strips (CC) of the penile tissue of New Zealand White rabbits. The strips were mounted in 10 ml tissue incubation chambers containing Krebs solution at 37° C., pH occurring between 7.3 and 7.5; continuously bubbled with a mixture of 95% oxygen (O2) and 5% carbon dioxide (CO2). An initial tension of 10 mN were applied on the tissues, followed by a 60 minute stabilization period. Changes in tension (isometric force) were obtained using isometric transducers (ADInstruments, Australia) and recorded in a data acquisition system PowerLab 4/30 (Chart Software, version 7.3.7, ADInstruments, MA, USA for BL-230 and version 7.0 ADInstruments, MA for the BL-236). […] Cumulative curve responses to the concentration of BL-230 compounds and tadalafil (0.001 to 10 μM) were obtained in the pre-contracted rabbit corpus cavernosum strips with 1 μM PE.

Consider one compound from patent US9359378B2, “Substituted oxazolo[3,4-a]pyrazines as pharmaceutcals” (BIOLAB SANUS FARMACÊUTICA LTDA., priority 2014, dated 2016).

Each structure is given as a SMILES string.

Turning to `CN1CC(=O)N2[C@H](c3ccc4c(c3)OCO4)c3[nH]c4ccccc4c3C[C@@H]2C1=O` [tadalafil, reference compound], the “percentage of relaxation in rabbit's corpus cavernosum” value is “around 100%”.
